Test results: patent US8580525B2, “Methods of screening for LTRPC7 modulators” (The Queen's Medical Center, priority 2000, dated 2013)

Experiments:
Wild type HEK-293 = assay: ATP-dependent endogenous currents, whole-cell patch-clamp; format: cell-based, human; conditions: 6 mM ATP in pipette solution
Procedure: (§1) For patch-clamp experiments, cells grown on glass coverslips were transferred to the recording chamber and kept in a standard modified Ringer's solution of the following composition (in mM): NaCl 145, KCl 2.8, CsCl 10, CaCl2 1, MgCl2 2, glucose 10, Hepes.NaOH 10, pH 7.2. In some experiments, nominally Ca^2+ and/or Mg^2+-free extracellular solutions or isotonic Ca^2+ solutions (120 mM CaCl2) were applied by pressure ejection from wide-tipped pipettes. Intracellular pipette-filling solutions contained (in mM): Cs-glutamate 145, NaCl 8, MgCl2 1, Cs-BAPTA 10, pH 7.2 adjusted with CsOH. In some experiments, Cs-glutamate was replaced equimolarly by K-glutamate or N-methyl-D-glucamine-chloride. Patch-clamp experiments were performed in the tight-seal whole-cell configuration at 21-25° C. High-resolution current recordings were acquired by a computer-based patch-clamp amplifier system (EPC-9, HEKA, Lambrecht, Germany). Sylgard-coated patch pipettes had resistances between 2-4 M after filling with the standard intracellular solution. […] Capacitive currents and series resistance were determined and corrected before each voltage ramp using the automatic capacitance compensation of the EPC-9. […]

LTRPC7 = biological target: T1, LTRPC7 (Mus musculus, UniProt Q923J1); assay: Intracellular perfusion with ATP, whole-cell patch-clamp of recombinant LTRPC7; format: cell-based
T1 construct: expressed in transfected cells
Procedure: For patch-clamp experiments, cells grown on glass coverslips were transferred to the recording chamber and kept in a standard modified Ringer's solution of the following composition (in mM): NaCl 145, KCl 2.8, CsCl 10, CaCl2 1, MgCl2 2, glucose 10, Hepes.NaOH 10, pH 7.2. In some experiments, nominally Ca^2+ and/or Mg^2+-free extracellular solutions or isotonic Ca^2+ solutions (120 mM CaCl2) were applied by pressure ejection from wide-tipped pipettes. Intracellular pipette-filling solutions contained (in mM): Cs-glutamate 145, NaCl 8, MgCl2 1, Cs-BAPTA 10, pH 7.2 adjusted with CsOH. In some experiments, Cs-glutamate was replaced equimolarly by K-glutamate or N-methyl-D-glucamine-chloride. Patch-clamp experiments were performed in the tight-seal whole-cell configuration at 21-25° C. High-resolution current recordings were acquired by a computer-based patch-clamp amplifier system (EPC-9, HEKA, Lambrecht, Germany). Sylgard-coated patch pipettes had resistances between 2-4 M after filling with the standard intracellular solution. Immediately following establishment of the whole-cell configuration, voltage ramps of 50 ms duration spanning the voltage range of −100 to +100 mV were delivered from a holding potential of 0 mV at a rate of 0.5 Hz over a period of 200 to 400 seconds. All voltages were corrected for a liquid junction potential of 10 mV between external and internal solutions when internal solutions contained glutamate. Currents were filtered at 2.3 kHz and digitized at 100 μs intervals. Capacitive currents and series resistance were determined and corrected before each voltage ramp using the automatic capacitance compensation of the EPC-9. The low-resolution temporal development of currents at a given potential was extracted from individual ramp current records by measuring the current amplitudes at voltages of −80 mV or +80 mV.

Jurkat T-lymphocytes = assay: ATP-dependent endogenous currents, whole-cell patch-clamp; format: cell-based; conditions: 6 mM ATP in pipette solution
Procedure: as §1

RBL-2H3 = assay: as above; format: cell-based; conditions: 6 mM ATP in pipette solution
Procedure: as §1

T1 sequence (Q923J1 2-1863 limits assumed): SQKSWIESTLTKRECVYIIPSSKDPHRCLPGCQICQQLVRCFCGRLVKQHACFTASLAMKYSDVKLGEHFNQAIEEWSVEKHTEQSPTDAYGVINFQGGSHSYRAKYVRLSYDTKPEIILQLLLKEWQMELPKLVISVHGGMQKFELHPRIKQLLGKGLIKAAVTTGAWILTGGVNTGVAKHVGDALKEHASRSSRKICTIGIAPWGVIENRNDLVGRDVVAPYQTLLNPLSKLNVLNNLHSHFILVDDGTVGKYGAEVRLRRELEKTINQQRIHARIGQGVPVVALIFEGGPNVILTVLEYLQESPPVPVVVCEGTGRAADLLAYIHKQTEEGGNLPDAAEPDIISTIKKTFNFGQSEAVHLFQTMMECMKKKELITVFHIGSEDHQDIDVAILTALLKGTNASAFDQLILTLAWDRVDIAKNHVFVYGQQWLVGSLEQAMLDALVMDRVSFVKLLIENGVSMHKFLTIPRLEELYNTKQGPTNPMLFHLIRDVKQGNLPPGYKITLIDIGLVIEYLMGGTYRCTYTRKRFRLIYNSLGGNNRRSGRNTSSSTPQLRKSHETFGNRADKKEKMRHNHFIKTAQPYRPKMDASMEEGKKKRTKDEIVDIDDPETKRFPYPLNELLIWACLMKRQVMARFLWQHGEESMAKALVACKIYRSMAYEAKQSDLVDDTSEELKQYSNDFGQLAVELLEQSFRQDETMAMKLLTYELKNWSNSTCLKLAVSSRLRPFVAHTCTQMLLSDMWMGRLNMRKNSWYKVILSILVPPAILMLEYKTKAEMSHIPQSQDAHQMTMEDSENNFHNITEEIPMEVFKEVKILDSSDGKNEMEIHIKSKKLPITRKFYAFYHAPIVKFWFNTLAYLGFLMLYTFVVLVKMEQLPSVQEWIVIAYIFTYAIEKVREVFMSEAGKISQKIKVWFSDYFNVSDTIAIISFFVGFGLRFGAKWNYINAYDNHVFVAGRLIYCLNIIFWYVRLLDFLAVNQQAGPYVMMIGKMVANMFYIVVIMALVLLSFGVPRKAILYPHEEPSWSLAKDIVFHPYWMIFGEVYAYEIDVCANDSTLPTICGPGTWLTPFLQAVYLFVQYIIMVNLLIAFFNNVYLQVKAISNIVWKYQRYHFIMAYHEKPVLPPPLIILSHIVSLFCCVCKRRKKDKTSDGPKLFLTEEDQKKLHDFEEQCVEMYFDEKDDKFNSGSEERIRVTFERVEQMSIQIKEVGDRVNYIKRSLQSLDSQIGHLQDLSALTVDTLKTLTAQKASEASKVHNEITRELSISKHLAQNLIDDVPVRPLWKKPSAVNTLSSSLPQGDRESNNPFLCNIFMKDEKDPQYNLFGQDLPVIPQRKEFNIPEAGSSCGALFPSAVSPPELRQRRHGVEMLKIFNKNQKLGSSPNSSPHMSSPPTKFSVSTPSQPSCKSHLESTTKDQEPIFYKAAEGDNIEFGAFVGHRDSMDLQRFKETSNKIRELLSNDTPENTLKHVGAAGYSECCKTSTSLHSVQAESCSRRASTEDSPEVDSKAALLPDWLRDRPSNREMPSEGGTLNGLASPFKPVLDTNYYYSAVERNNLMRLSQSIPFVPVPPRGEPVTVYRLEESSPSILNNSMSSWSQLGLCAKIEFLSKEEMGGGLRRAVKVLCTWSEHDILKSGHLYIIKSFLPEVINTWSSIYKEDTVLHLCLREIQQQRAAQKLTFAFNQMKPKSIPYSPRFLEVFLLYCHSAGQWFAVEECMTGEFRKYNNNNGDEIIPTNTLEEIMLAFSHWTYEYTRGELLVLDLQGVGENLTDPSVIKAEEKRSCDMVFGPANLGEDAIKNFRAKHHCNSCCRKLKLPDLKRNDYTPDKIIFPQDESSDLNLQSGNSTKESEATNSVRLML

- intracellular concentration that causes the LTRPC7 channel to close (LTRPC7; intracellular ATP): 6-10 millimolar
- intracellular concentration that causes the LTRPC7 channel to reopen (LTRPC7; intracellular ATP): 0-4 millimolar
Structure (SMILES): Nc1ncnc2c1ncn2[C@@H]1O[C@H](COP(=O)(O)OP(=O)(O)OP(=O)(O)O)[C@@H](O)[C@H]1O [ATP]
- outwardly rectifying cationic conductance (Wild type HEK-293): absent
- change of maximum outward current after whole-cell establishment (LTRPC7; 6 mM ATP in pipette, +80 mV, 300 s): currents are actually decreasing after break-in
- outwardly rectifying cationic conductance (Jurkat T-lymphocytes): absent
- outwardly rectifying cationic conductance (RBL-2H3): absent
